According to patent publication US12448389B2, “BRM targeting compounds and associated methods of use” (Prelude Therapeutics Incorporated, priority 2020, dated 2025):

Experiments:
SMARCA2-HiBiT = molecular target: T1, SMARCA2-HiBiT (Homo sapiens, UniProt P51531); test: SMARCA2 HiBiT degradation assay in HeLa cells; format: cell-based; settings: 18 hours incubation; for DC50: read-out: HeLa_HiBit-SM2 DC50; for Dmax: HeLa, read-out: HeLa-HiBit-SM2 Dmax (%)
T1 construct: SMARCA2-HiBiT knock-in Hela monoclonal cell (CS302366); host or cells: HeLa monoclonal knock-in line (CRISPR HiBiT knock-in at the endogenous locus, heterozygous)
T1 sequence (P51531 whole entry): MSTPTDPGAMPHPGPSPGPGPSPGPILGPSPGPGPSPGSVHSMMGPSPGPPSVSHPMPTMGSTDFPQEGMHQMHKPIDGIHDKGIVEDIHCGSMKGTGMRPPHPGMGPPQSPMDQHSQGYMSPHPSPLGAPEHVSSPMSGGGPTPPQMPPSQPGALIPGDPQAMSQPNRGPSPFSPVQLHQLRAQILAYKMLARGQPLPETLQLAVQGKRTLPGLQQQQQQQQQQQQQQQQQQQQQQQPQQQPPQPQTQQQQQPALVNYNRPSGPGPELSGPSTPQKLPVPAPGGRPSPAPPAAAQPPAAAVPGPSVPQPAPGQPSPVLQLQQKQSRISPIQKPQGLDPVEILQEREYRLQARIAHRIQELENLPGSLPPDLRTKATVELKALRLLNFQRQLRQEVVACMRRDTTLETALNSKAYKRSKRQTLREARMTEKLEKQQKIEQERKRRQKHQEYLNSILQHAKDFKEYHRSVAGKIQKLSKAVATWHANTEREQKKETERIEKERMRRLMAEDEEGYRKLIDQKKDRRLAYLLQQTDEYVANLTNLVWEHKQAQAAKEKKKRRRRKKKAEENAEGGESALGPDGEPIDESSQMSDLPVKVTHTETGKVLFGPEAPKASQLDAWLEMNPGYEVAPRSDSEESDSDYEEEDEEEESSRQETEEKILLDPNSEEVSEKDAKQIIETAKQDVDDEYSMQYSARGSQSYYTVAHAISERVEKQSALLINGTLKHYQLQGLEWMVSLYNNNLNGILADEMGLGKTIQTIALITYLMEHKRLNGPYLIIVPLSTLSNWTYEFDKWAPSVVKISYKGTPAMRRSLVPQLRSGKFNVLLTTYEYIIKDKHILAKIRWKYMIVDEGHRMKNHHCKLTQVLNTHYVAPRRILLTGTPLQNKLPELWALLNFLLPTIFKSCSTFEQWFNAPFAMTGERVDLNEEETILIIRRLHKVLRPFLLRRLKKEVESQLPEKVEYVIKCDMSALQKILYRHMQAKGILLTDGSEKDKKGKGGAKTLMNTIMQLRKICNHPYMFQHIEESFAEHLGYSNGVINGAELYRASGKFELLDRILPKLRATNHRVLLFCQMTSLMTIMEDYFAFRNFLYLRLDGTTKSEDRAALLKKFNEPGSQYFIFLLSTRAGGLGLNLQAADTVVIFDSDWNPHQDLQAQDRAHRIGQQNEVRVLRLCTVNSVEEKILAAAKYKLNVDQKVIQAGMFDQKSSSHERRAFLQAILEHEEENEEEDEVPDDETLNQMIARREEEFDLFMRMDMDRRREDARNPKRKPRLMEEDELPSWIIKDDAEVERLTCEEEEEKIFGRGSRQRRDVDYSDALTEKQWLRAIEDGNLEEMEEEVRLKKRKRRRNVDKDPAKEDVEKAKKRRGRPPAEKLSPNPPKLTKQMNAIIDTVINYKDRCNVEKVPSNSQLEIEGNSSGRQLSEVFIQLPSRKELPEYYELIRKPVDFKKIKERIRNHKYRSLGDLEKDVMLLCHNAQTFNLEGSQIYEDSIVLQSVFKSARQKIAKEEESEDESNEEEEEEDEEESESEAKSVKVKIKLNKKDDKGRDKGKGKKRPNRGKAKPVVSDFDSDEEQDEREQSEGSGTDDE
Procedure: (§1) HiBiT peptide knock-in of SMARCA2 in LgBiT expressing HEK293T cells was performed by CRISPR-mediated tagging system as described Promega. The homozygous HiBiT knock-in on c-terminus SMARCA2 was confirmed by sanger sequence. SMARCA2-HiBiT knock-in Hela monoclonal cell (CS302366) and SMARCA4-HiBiT knock-in Hela monoclonal cell (CS3023226) were purchased from Promega. The heterozygous HiBiT-knock-in was confirmed by sanger sequence in both SMARCA2-HiBiT and SMARCA4-HiBiT monoclonal cells.
(§2) SMARCA2 HiBiT and SMARCA4 HiBiT Degradation Assay in HeLa Cells
(§3) Dispense 10 ul aliquot of prepared Hela-SMARCA2-HiBiT or Hela-SMARCA4-HiBiT cells (1:1 ratio of cells:Trypan Blue (#1450013, Bio-Rad)) onto cell counting slide (#145-0011, Bio-Rad) and obtain cell density and cell viability using cell counter (TC20, Bio-Rad). Remove appropriate volume of resuspended cells from culture flask to accommodate 2500 cells/well @20 μL/well. Transfer Hela-HiBiT cells to 50 mL conical (#430290, Corning). Spin down at 1000 rpm for 5 min using tabletop centrifuge (SPINCHRON 15, Beckman). Discard supernatant and resuspend cell pellet in modified EMEM (#30-2003, ATCC) cell culture media containing 10% FBS (F2422-500ML, Sigma), and 1×Penicillin/Streptomycin (200 g/L) (30-002-CI, Corning) to a cell density of 125,000 cells/mL. Dispense 20 μL of resuspended Hela-HiBit cells per well in 384-well TC treated plate (#12-565-343, Thermo Scientific) using standard cassette (#50950372, Thermo Scientific) on Multidrop Combi (#5840310, Thermo Scientific) inside laminar flow cabinet. Dispense test compounds onto plates using digital liquid dispenser (D300E, Tecan). Incubate plates in humidified tissue culture incubator @37° C. for 18 hours. Add 20 μL of prepared Nano-Glo® HiBiT Lytic detection buffer (N3050, Promega) to each well of 384-well plate using small tube cassette (#24073295, Thermo Scientific) on Multidrop Combi, incubate @RT for 30-60 min. Read plates on microplate reader (Envision 2105, PerkinElmer) using 384 well Ultra-Sensitive luminescence mode. Raw data files and compound information reports are swept into centralized data lake and deconvoluted using automated scripts designed by TetraScience, Inc. Data analysis, curve-fitting and reporting done in Dotmatics Informatics Suite using Screening Ultra module.

SMARCA4-HiBiT = molecular target: T2, SMARCA4-HiBiT (Homo sapiens, UniProt P51532); test: SMARCA4 HiBiT degradation assay in HeLa cells; format: cell-based; settings: 18 hours incubation; for DC50: read-out: HeLa-HiBit-SM4 DC50; for Dmax: HeLa, read-out: HeLa-HiBit-SM4 Dmax (%)
T2 construct: SMARCA4-HiBiT knock-in Hela monoclonal cell (CS3023226); host or cells: HeLa monoclonal knock-in line (CRISPR HiBiT knock-in at the endogenous locus, heterozygous)
T2 sequence (P51532 whole entry): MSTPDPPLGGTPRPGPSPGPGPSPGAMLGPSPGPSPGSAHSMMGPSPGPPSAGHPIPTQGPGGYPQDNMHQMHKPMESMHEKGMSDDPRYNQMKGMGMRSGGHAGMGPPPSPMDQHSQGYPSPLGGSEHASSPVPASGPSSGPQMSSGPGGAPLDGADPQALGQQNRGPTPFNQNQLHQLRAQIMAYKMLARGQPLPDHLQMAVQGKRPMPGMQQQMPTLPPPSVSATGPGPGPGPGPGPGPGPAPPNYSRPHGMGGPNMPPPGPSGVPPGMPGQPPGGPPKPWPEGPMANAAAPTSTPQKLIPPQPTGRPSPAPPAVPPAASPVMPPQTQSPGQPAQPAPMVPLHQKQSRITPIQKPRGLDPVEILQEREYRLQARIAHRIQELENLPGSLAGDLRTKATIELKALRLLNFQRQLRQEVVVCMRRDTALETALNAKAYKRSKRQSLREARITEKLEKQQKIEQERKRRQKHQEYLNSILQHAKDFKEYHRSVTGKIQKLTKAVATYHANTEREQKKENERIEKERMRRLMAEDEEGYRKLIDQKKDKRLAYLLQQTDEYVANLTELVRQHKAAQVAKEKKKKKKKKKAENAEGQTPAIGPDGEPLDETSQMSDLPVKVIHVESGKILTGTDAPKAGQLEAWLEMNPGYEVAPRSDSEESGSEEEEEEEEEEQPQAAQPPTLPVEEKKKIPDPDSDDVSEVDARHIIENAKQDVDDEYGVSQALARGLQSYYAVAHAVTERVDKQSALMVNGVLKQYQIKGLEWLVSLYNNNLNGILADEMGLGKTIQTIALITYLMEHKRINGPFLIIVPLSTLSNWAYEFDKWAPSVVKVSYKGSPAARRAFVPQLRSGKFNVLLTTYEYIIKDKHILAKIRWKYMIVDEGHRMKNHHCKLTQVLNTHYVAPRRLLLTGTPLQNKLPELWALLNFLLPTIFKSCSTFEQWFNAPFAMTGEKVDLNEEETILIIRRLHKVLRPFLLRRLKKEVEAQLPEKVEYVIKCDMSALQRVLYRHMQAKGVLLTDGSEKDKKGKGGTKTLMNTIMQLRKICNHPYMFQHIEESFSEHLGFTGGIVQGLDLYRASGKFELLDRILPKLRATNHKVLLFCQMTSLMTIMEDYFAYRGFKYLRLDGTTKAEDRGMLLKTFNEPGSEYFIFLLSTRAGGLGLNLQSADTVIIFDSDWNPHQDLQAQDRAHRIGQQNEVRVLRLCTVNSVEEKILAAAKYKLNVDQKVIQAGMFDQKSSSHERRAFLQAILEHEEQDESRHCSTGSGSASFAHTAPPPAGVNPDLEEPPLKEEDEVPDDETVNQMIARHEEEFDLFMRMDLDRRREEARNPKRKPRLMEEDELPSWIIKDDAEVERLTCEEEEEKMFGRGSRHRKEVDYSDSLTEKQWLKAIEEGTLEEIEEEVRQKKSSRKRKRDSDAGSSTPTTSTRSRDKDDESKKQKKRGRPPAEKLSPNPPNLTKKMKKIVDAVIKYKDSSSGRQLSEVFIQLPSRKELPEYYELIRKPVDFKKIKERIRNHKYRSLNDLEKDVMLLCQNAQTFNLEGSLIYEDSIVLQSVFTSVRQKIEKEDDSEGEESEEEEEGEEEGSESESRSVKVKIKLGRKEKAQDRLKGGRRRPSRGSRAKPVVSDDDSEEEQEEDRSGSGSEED
Procedure: as §1, §2, §3

Row | SMILES | DC50 (SMARCA2-HiBiT) [nM] | Dmax (SMARCA2-HiBiT) [%] | DC50 (SMARCA4-HiBiT) [nM] | Dmax (SMARCA4-HiBiT) [%] | HeLa-HiBit-SM2 Dmax (%) (SMARCA2-HiBiT) | HeLa-HiBit-SM4 Dmax (%) (SMARCA4-HiBiT)
1 | CC1(C)CN(c2ccc3c(c2)C(=O)N(C2CCC(=O)NC2=O)C3=O)CCC1CN1CCC(CN2CCN3c4cc(-c5ccccc5O)nnc4NC[C@H]3C2)CC1 (stereo partly drawn) [Example 88, 2-(2,6-dioxopiperidin-3-yl)-5-(4-((4-(((S)-2-(2-hydroxyphenyl)-5,6,6a,7,9,10-hexahydro-8H-pyrazino[1′,2′:4,5]pyrazino[2,3-c]pyridazin-8-yl)methyl)piperidin-1-yl)methyl)-3,3-dimethylpiperidin-1-yl)isoindoline-1,3-dione] | < 10 | > 85 | < 10 | > 85 |  | 
2 | CC1(CN2C[C@@H]3[C@@H](CN4CCN5c6cc(-c7ccccc7O)nnc6NC[C@H]5C4)[C@@H]3C2)CN(c2ccc3c(c2)C(=O)N(C2CCC(=O)NC2=O)C3=O)CCO1 (stereo partly drawn) [Example 59, 2-(2,6-dioxopiperidin-3-yl)-5-(2-(((1R,5S,6s)-6-(((S)-2-(2-hydroxyphenyl)-5,6,6a,7,9,10-hexahydro-8H-pyrazino[1′,2′:4,5]pyrazino[2,3-c]pyridazin-8-yl)methyl)-3-azabicyclo[3.1.0]hexan-3-yl)methyl)-2-methylmorpholino)isoindoline-1,3-dione] | < 10 | 75 to 85 | 10 to 100 | 75 to 85 |  | 
3 | O=C1CCC(N2Cc3ccc(N4CCC(CN5CCN(C(=O)N6CCN7c8cc(-c9ccccc9O)nnc8NC[C@H]7C6)C(CO)C5)CC4)cc3C2=O)C(=O)N1 (stereo partly drawn) [Example 110, 3-(6-(4-((3-(hydroxymethyl)-4-((S)-2-(2-hydroxyphenyl)-6,6a,7,8,9,10-hexahydro-5H-pyrazino[1′,2′:4,5]pyrazino[2,3-c]pyridazine-8-carbonyl)piperazin-1-yl)methyl)piperidin-1-yl)-1-oxoisoindolin-2-yl)piperidine-2,6-dione] | < 10 | > 85 | 10 to 100 | 75 to 85 |  | 
4 | O=C1CCC(N2C(=O)c3ccc(N4CCC(CN5CCC(NC6CCN7c8cc(-c9ccccc9O)nnc8NCC7C6)CC5)CC4)cc3C2=O)C(=O)N1 (centres unmarked) [Example 253, 2-(2,6-dioxopiperidin-3-yl)-5-(4-((4-((2-(2-hydroxyphenyl)-6,6a,7,8,9,10-hexahydro-5H-pyrido[1′,2′:4,5]pyrazino[2,3-c]pyridazin-8-yl)amino)piperidin-1-yl)methyl)piperidin-1-yl) isoindoline-1,3-dione] | < 10 | 50 to 75 | 10 to 100 | 50 to 75 |  | 
5 | O=C1CCC(N2C(=O)c3ccc(N4CC[C@H](CN5C[C@@H]6[C@H](C5)[C@H]6CN5CCN6c7cc(-c8cc(F)ccc8O)nnc7NC[C@H]6C5)[C@@H](F)C4)cc3C2=O)C(=O)N1 (stereo partly drawn) [Example 278, 2-(2,6-dioxopiperidin-3-yl)-5-((3R,4R)-3-fluoro-4-(((1R,5S,6R)-6-(((S)-2-(5-fluoro-2-hydroxyphenyl)-5,6,6a,7,9,10-hexahydro-8H-pyrazino[1′,2′:4,5]pyrazino[2,3-c]pyridazin-8-yl)methyl)-3-azabicyclo[3.1.0]hexan-3-yl)methyl)piperidin-1-yl) isoindoline-1,3-dione] | < 10 |  | < 10 |  | A (A=Dmax>85%) | A (A=Dmax>85%)
6 | O=C1CCC(N2C(=O)c3cccc(N4CCC(CCCN5C6CCC5CC(N5CCN7c8cc(-c9ccccc9O)nnc8NC[C@H]7C5)C6)CC4)c3C2=O)C(=O)N1 (stereo partly drawn) [Example 125, 2-(2,6-dioxopiperidin-3-yl)-4-(4-(3-(3-((S)-2-(2-hydroxyphenyl)-5,6,6a,7,9,10-hexahydro-8H-pyrazino[1′,2′:4,5]pyrazino[2,3-c]pyridazin-8-yl)-8-azabicyclo[3.2.1]octan-8-yl)propyl)piperidin-1-yl)isoindoline-1,3-dione] | < 10 | 75 to 85 | < 10 | 75 to 85 |  | 
7 | NC1(C(=O)OCN2C(=O)CCC(N3C(=O)c4ccc(N5CCC(CN6CCC(CN7CCN8c9cc(-c%10ccccc%10O)nnc9NC[C@H]8C7)CC6)CC5)cc4C3=O)C2=O)CC1 (stereo partly drawn) [Example 131, (3-(5-(4-((4-(((S)-2-(2-hydroxyphenyl)-5,6,6a,7,9,10-hexahydro-8H-pyrazino[1′,2′:4,5]pyrazino[2,3-c]pyridazin-8-yl)methyl)piperidin-1-yl)methyl)piperidin-1-yl)-1,3-dioxoisoindolin-2-yl)-2,6-dioxopiperidin-1-yl)methyl 1-aminocyclopropane-1-carboxylate] | < 10 | > 85 | < 10 | > 85 |  | 
8 | C[C@H]1CN2c3cc(-c4ccccc4O)nnc3NC[C@H]2CN1C[C@H]1[C@@H]2CN(CC3CCN(c4ccc5c(c4)C(=O)N(C4CCC(=O)NC4=O)C5=O)C[C@@H]3F)C[C@@H]21 (stereo in doubt) [Example 199, 2-(2,6-dioxopiperidin-3-yl)-5-[(3R,4R)-3-fluoro-4-[[(1S,5R)-6-[[(10S,13S)-4-(2-hydroxyphenyl)-13-methyl-1,5,6,8,12-pentazatricyclo [8.4.0.02,7]tetradeca-2(7),3,5-trien-12-yl]methyl]-3-azabicyclo [3.1.0]hexan-3-yl]methyl]piperidin-1-yl]isoindole-1,3-dione] | < 10 | > 85 | < 10 | 50 to 75 |  | 
9 | O=C1CCC(N2Cc3ccc(N4CCC(CN5CCN(C(=O)N6CCN7c8cc(-c9ccccc9O)nnc8NC[C@H]7C6)CC5C(F)(F)F)CC4)cc3C2=O)C(=O)N1 (stereo partly drawn) [Example 102, 3-(6-(4-((4-((S)-2-(2-hydroxyphenyl)-6,6a,7,8,9,10-hexahydro-5H-pyrazino[1′,2′:4,5]pyrazino[2,3-c]pyridazine-8-carbonyl)-2-(trifluoromethyl)piperazin-1-yl)methyl)piperidin-1-yl)-1-oxoisoindolin-2-yl)piperidine-2,6-dione] | < 10 | > 85 | < 10 | 75 to 85 |  | 
10 | O=C1CCC(N2C(=O)c3ccc(N4CC[C@H](CN5C[C@@H]6[C@H](C5)[C@H]6CN5CCN6c7cc(-c8cc(F)ccc8O)nnc7NC[C@H]6C5)[C@@H](F)C4)cc3C2=O)C(=O)N1 (stereo partly drawn) [Example 277, 2-(2,6-dioxopiperidin-3-yl)-5-((3R,4R)-3-fluoro-4-(((1R,5S,6R)-6-(((S)-2-(5-fluoro-2-hydroxyphenyl)-5,6,6a,7,9,10-hexahydro-8H-pyrazino[1′,2′:4,5]pyrazino[2,3-c]pyridazin-8-yl)methyl)-3-azabicyclo[3.1.0]hexan-3-yl)methyl)piperidin-1-yl)isoindoline-1,3-dione] | < 10 | > 85 | < 10 |  |  | C (C=50%<Dmax<=75%)
11 | CC1CN(CC2CCN(c3ccc4c(c3)C(=O)N(C3CCC(=O)NC3=O)C4=O)CC2)CCC1CN1CCN2c3cc(-c4ccccc4O)nnc3NC[C@H]2C1 (stereo partly drawn) [Example 161, 2-(2,6-dioxopiperidin-3-yl)-5-(4-((4-(((S)-2-(2-hydroxyphenyl)-5,6,6a,7,9,10-hexahydro-8H-pyrazino[1′,2′:4,5]pyrazino[2,3-c]pyridazin-8-yl)methyl)-3-methylpiperidin-1-yl)methyl)piperidin-1-yl)isoindoline-1,3-dione] | < 10 | > 85 | < 10 | > 85 |  | 
